Patent US20100286105A1, “METHODS OF TREATING HYPERANDROGENISM AND CONDITIONS ASSOCIATED THEREWITH BY ADMINISTERING A FATTY ACID ESTER OF AN ESTROGEN OR AN ESTROGEN DERIVATIVE” (priority 2006, published 2010)

Columns and labels:
Assay type in all cases: in vivo, human
[1] = test system: humans; test: Part 1: single oral dose safety and tolerability study of oleoyl-estrone in humans; conditions: one-time single oral dose
Description: (§1) A two-part study was conducted to evaluate the safety, tolerability, and pharmacokinetic (PK) profiles of single and multiple doses of oleoyl-estrone in humans.
For the first part of the study, thirty-six subjects where divided into groups of six. Each group was dosed with a single dose of 1, 3, 10, 30, 100, or 150 mg of oleoyl-estrone. Each individual in the group of 6 was randomized to oleoyl-estrone or placebo in a ratio of 2:1 where for every two individuals given oleoyl-estrone one is given a placebo.
(§2) Subjects under went a physical examination to establish height, weight, BMI and baseline signs and symptoms. Electrocardiograms and vital signs were taken. Blood for evaluation of hematology, coagulation and clinical chemistry and urine for urinalysis were obtained for each subject. Samples were also taken for hormone analysis, including estrone, estradiol and testosterone.

[2] = test system: humans; test: Part 2: seven-day daily oral dose safety and tolerability study in humans
Description: as §1
(§3) For the second part of the study, […] subjects were divided into […]. Each group was dosed with a single daily dose of 10, 30, 100, or 150 mg oleoyl-estrone for a seven day period. Each individual in the group of 4 was randomized to oleoyl-estrone or placebo.
as §2, with “testosterone. Food-intake and motivation-to-eat using visual analogue scale questionnaires were analyzed.” for “testosterone.”
(§4) Males and post-menopausal females were recruited in both parts of the study. The trial protocol provided that patients should maintain a normal diet and level of activity, but required that patients abstain from consuming alcohol. At baseline, in the placebo group me mean patient weight was 100.5±4.9 kg and BMI 34.4±3.5 and in the oleoyl-estrone group the weight was 100.5±17.8 kg and the average BMI was 34±4.2. The results discussed below are from the second part of the study.

[3] = test system: humans; test: Part 2: hormone levels (estrone, estradiol, testosterone, LH, leptin, CRP); conditions: 7 days daily oral dosing
Description: as §3
as §2, with “testosterone. Food-intake and motivation-to-eat using visual analogue scale questionnaires were analyzed.” for “testosterone.”
as §4

[4] = test system: humans; test: Part 2: hematology and clinical chemistry (white blood cells, lipids, glucose)
Description: as §3
as §2, with “testosterone. Food-intake and motivation-to-eat using visual analogue scale questionnaires were analyzed.” for “testosterone.”
as §4

[5] = test system: humans; test: Part 2: body weight and food consumption (visual analogue scale questionnaires)
Description: as §3
as §2, with “testosterone. Food-intake and motivation-to-eat using visual analogue scale questionnaires were analyzed.” for “testosterone.”
as §4

[6] = Part 2: pharmacokinetics, plasma concentration of oleoyl-estrone; conditions: for Cmax: 100 mg, 100 mg group (highest)
Description: as §3
as §2, with “testosterone. Food-intake and motivation-to-eat using visual analogue scale questionnaires were analyzed.” for “testosterone.”
as §4

[7] = oleoyl-estrone treated group, 7 days daily oral dosing

**Q.** With CCCCCCCC/C=C\CCCCCCCC(=O)Oc1ccc2c(c1)CC[C@@H]1[C@@H]2CC[C@]2(C)C(=O)CC[C@@H]12 [oleoyl-estrone, [3(Z)]-3-[(1-oxo-9-octadecenyl)oxy]-estra-1,3,5(10)-trien-17-one] as the compound, how does the safety and tolerability ([1]; 1 to 150 mg) read?
**A.** safe, well tolerated at oral doses up to 150 mg

**Q.** And the serious adverse events ([1]; up to 150 mg)?
**A.** no serious adverse events were noted

**Q.** What about the “changes in physical examinations, vital signs, ECGs, coagulation or liver function tests” value ([2]; 7 days daily oral dosing) of the same compound?
**A.** no clinically significant changes

**Q.** What about the post-menopausal bleeding ([2]; oleoyl-estrone study volunteers, similar episode 6 months prior to dosing) of the same compound?
**A.** one had post-menopausal bleeding

**Q.** What about the “adverse effect: back pain (n affected/n treated)” value [2, 7] of the same compound?
**A.** 4/17

**Q.** What about the “adverse effect: diarrhea (n affected/n treated)” value [2, 7] of the same compound?
**A.** 3/17

**Q.** And the “adverse effect: headache (n affected/n treated)” value [2, 7]?
**A.** 3/17

**Q.** What about the safety and tolerability ([2]; single daily oral dose 10-150 mg for seven days, humans) of the same compound?
**A.** safe, well tolerated at oral doses up to 150 mg

**Q.** And the serious adverse events ([2]; single daily oral dose up to 150 mg for seven days, humans)?
**A.** no serious adverse events were noted

**Q.** And the “effects on LH” value [3]?
**A.** less clear-cut

**Q.** What about the mean estradiol levels [3] of the same compound?
**A.** elevated

**Q.** What about the mean estrone levels [3] of the same compound?
**A.** elevated

**Q.** And the mean testosterone levels [3]?
**A.** suppressed in a reversible and dose dependent manner

**Q.** And the CRP ([3]; to Day 15)?
**A.** increased in a dose-dependent manner, returning to baseline by Day 15

**Q.** What about the leptin ([3]; to Day 15) of the same compound?
**A.** increased in a dose-dependent manner, returning to baseline by Day 15

**Q.** What about the “mean HDL cholesterol” value ([4]; 7 days daily oral dosing) of the same compound?
**A.** increased

**Q.** And the “mean LDL cholesterol” value ([4]; 7 days daily oral dosing)?
**A.** decreased

**Q.** And the “HDL:LDL cholesterol ratio” value ([4]; 7 days daily oral dosing, even lower doses)?
**A.** increase in the HDL:LDL cholesterol ratio even at the lower doses

**Q.** And the mean glucose concentration ([4]; 7 days daily oral dosing, up to Day 15)?
**A.** fell in a reversible and dose dependent manner and was still low at Day 15

**Q.** And the total mean cholesterol ([4]; Day 7, 100-150 mg)?
**A.** decrease at Day 7 with 100-150 mg

**Q.** And the “white blood cell count” value ([4]; Day 7 and Day 15)?
**A.** increase in white blood cell count was seen in Day 7 but returned to baseline by Day 15

**Q.** What about the “total mean TAGs” value ([4]; all doses, all days) of the same compound?
**A.** dose-dependent increase at all doses and on all days

**Q.** What about the “dose dependence of VAS scores and loss of weight” value ([5]; 10-150 mg daily for 7 days) of the same compound?
**A.** more or less dose-dependent, with maximal effects in the 30 mg and 100 mg groups

**Q.** What about the “feelings of hunger, satiety and prospective food consumption (VAS)” value ([5]; 7 days daily oral dosing) of the same compound?
**A.** consistently demonstrated reductions

**Q.** What about the “weight loss compared to placebo” value ([5]; Day 28) of the same compound?
**A.** greater and maintained

**Q.** And the “plasma concentration of oleoyl-estrone versus administered dose level” value ([6]; 10-150 mg daily oral, assay of limited sensitivity)?
**A.** did not increase with the administered dose level

**Q.** What about the accumulation in plasma ([6]; Day 7 relative to Day 1, daily oral dosing for 7 consecutive days) of the same compound?
**A.** no clear accumulation in plasma

**Q.** What about the Cmax ([6]; both sexes, human, plasma, oral, Day 1) of the same compound?
**A.** 2.4 ng/mL

**Q.** What about the Cmax ([6]; both sexes, human, plasma, oral, Day 7) of the same compound?
**A.** 3.2 ng/mL

**Q.** What about the concentration at 1 day ([6]; both sexes, human, plasma, oral, Day 1, across dose groups, read-out: oleoyl-estrone plasma levels) of the same compound?
**A.** 0.3 to 2.4 ng/mL

**Q.** And the concentration at 7 day ([6]; both sexes, human, plasma, oral, Day 7, across dose groups, read-out: oleoyl-estrone plasma levels)?
**A.** 0.3 to 3 ng/mL

**Q.** What about the “sex differences in plasma concentration-time profiles” value ([6]; males and post-menopausal females) of the same compound?
**A.** no clear differences between the sexes
